Source: patent publication US20120010264A1, “NOVEL MEDICAMENT FOR TREATING COGNITIVE IMPAIRMENT” (Dainippon Sumitomo Pharma Co., Ltd., priority 2009, published 2012)
Like-named read-outs stand apart in the source and are kept apart here.

Tests used:
[1] = Brain delivery property: brain tissue and plasma concentration after oral administration; assay type: in vivo; conditions: female, 10 mg/kg oral, one portion, C57BL/6J mouse; for Kp: brain and plasma, read-out: Kp value (brain/plasma AUC0-6 hr ratio); for half-life / AUC(0-t): non-fasting; for AUC(0-t): read-out: AUC0-6 hr
Experimental: Method: Compound A or rosiglitazone (10 mg/kg) was orally administered in one portion to a mouse (C57BL/6J: female, 11 weeks old, 3 mice at each measuring point) under non-fasting condition. Its brain tissue and plasma were sequentially sampled for 6 hours after the administration to measure the concentration of the administered-compound. Based on each mean value of the concentrations in its brain tissue and plasma measured at several time points, each elimination half-life (t1/2) and area under the curve (AUC0-6hr) of the administered-compound were calculated.

[2] = test system: LPS-induced cognitive impairment mouse; assay: LPS-induced cognitive impairment model, Y-maze test (alternation behavior); assay type: in vivo; conditions: LPS i.c.v., percentage of alternation behavior in Y-maze
Experimental: It is known that lipopolysaccharide (LPS) can experimentally induce an inflammatory condition in brain like in Alzheimer's dementia patients. Thus, LPS-induced model is thought as a good disease model to study cognitive impairment caused by inflammation in Alzheimer's dementia (Neurosci. Res., 61, 113, 2008).
In Example 4-2, 5 μg of LPS (Eschenchia coli 055:B5, SIGMA) was intracerebroventricularly administered to a mouse (Slc:ddY mouse, 4 weeks old, male, Japan SLC, Inc.) in both ventricles, i.e. 2.5 μl of 1 mg/ml LPS was administered to each ventricle. LPS induced cognitive impairment in Y-maze test was appeared 4 days after treatment. (i.e. decrease of alternation behavior). Compound A (10, 30, 100 mg/kg, p.o., n=14-16) or rosiglitazone (1, 3, 10 mg/kg, p.o., n=8) was administered 30 minutes before the LPS administration, and 1, 2, 3 days after the LPS administration, and also 1 hour before the Y-maze test to evaluate the effect for improving cognitive function. 0.5% Methylcellulose solution was used as a solvent of each compound.

[3] = test system: rats with scopolamine-induced cognitive impairment; assay: Scopolamine-induced cognitive impairment model, passive avoidance test; assay type: in vivo, rat; conditions: for Step-through latency: scopolamine 0.5 mg/kg i.p., rat, mean ± standard error, n = 11, up to 300 seconds
Description: It is known that scopolamine is a muscarinic acetylcholine receptor antagonist which causes memory impairment in animals and human. Thus, in order to evaluate the efficacy of an anti-Alzheimer's drug, a scopolamine-induced cognitive-impairment model is used in many evaluation tests of cognitive function including a passive avoidance test (Eur. J. Pharmacol., 383, 231, 1999). In Example 6, the effect of Compound A and rosiglitazone on cognitive function was studied using a passive avoidance test using rats with scopolamine-induced cognitive impairment.
Compound A (3, 10, 30 mg/kg) or rosiglitazone (1, 3, 10 mg/kg) was orally administered to a rat 60 minutes before training for the passive avoidance test. Scopolamine (0.5 mg/kg) or saline was intraperitoneally administered 30 minutes before the training. In the training period, the rat was put in a bright compartment and was allowed to explore for 10 seconds. Then, a door between the bright compartment and the dark one was opened, and as the rat went into the dark compartment, the door was closed. Three seconds later, the rat was given electroconvulsive shock (0.5 mA, 3 seconds). The passive avoidance response test was carried out 24 hours after the training. The rat was put in the bright compartment and was monitored to record the time that the rat stayed in the bright compartment (step-through latency) for up to 300 seconds. Dunnett's multiple comparison test (two-sided significance level 5%) was carried out to compare the step-through latency between the scopolamine treatment group and the scopolamine+test medicament treatment group. […] 0.5% Methylcellulose solution was used as a solvent of each compound.

[4] = post-marketing surveillance; cited from earlier work
[5] = Fluid retention as side effect: hematocrit level in high-fat diet obese diabetes mice; conditions: for Hematocrit level: high-fat diet mouse; for Effect on hematocrit level in mice (summary of Example 5): dose not stated
scavenger receptor CD36 = assay: CD36 transcription level in microglial cells by real-time RT-PCR; assay type: cell-based; conditions: 0.5 μM, 24 hours, neonatal rat microglial cells
Experimental: Microglial cells derived from neonatal rats (Sumitomo Bakelite) were cultured for 24 hours in a culture medium containing Compound A (0.5 μM or 5 μM). Then, total RNA was extracted from the cells, and therewith the transcription levels of scavenger receptor CD36 and glyceraldehyde-3-phosphate dehydrogenase (GAPDH) were measured by real-time RT-PCR to calculate the CD36 transcription level as a value relative to the GAPDH transcription level. In order to compare the CD36 transcription levels treated in the different conditions, CD36 transcription level in the control that was cultured for 24 hours with only DMSO which was used as a solvent in the above cultivation of Compound A was measured, and then the relative ratio of each CD36 transcription level of Compound A per that of the control (=1) was calculated.

[6] = mouse, in vivo
[7] = 3 mg/kg oral once a day for 8 weeks
[8] = 10 mg/kg oral once a day for 8 weeks

Row | SMILES | Kp [1] | half-life ([1]; brain) [min] | AUC(0-t) ([1]; brain) [ng·h/mL] | half-life ([1]; plasma) [min] | AUC(0-t) ([1]; plasma) [ng·h/mL] | Alternation behavior ([2]; 10 mg/kg p.o.) | Step-through latency ([3]; 3 mg/kg p.o.) [s] | Hematocrit level [5, 7] [%] | Hematocrit level [5, 8] [%] | Effect on hematocrit level in mice (summary of Example 5) [5] | also measured
1 | CN(CCOc1ccc(CC2SC(=O)NC2=O)cc1)c1ccccn1 (stereo not drawn) [Rosiglitazone, rosiglitazone] | 0.0451 | 63.6 | 1820 | 75.6 | 40400 | 73.4 ± 2.7 | 164.5 ± 33.1 | 44.7 ± 1.5 | 41.1 ± 4.9 | decreased | Alternation behavior ([2]; 1 mg/kg p.o.): 68.4 ± 5.0; Alternation behavior ([2]; 3 mg/kg p.o.): 71.9 ± 4.1; Step-through latency ([3]; 1 mg/kg p.o.): 144.8 ± 28.3 s; Step-through latency ([3]; 10 mg/kg p.o.): 170.7 ± 30.2 s; Frequency of fluid retention (peripheral edema) [4]: high; Hematocrit level ([5]; 0.1 mg/kg oral once a day for 8 weeks): 47.4 ± 1.9%; Hematocrit level ([5]; 0.3 mg/kg oral once a day for 8 weeks): 46.6 ± 1.9 %; Hematocrit level ([5]; 1 mg/kg oral once a day for 8 weeks): 45.6 ± 0.9 %; Change of hematocrit level vs solvent ([5]; dose of 0.3 mg/kg or more, oral once a day for 8 weeks): significantly decreased
2 | Cc1ccc(C(=O)c2cccn2C/C=C/c2ccc(COC(C)(C)C(=O)O)cc2)cc1 [Compound A, 2-Methyl-2-[(4-{(1E)-3-[2-(4-methylbenzoyl)-1H-pyrrol-1-yl]prop-1-en-1-yl}benzyl)oxy]propionic acid] | 0.154 | 256 | 1500 | 275 | 9710 | 66.5 ± 2.8 | 162.5 ± 28.2 | 47.7 ± 2.0 | 48.7 ± 1.2 | did not significantly affect | CD36 transcription level relative to GAPDH, ratio per DMSO control (=1) (scavenger receptor CD36): 1.44; Effect on cognitive function (step-through latency) ([3]; single oral administration 3-30 mg/kg, scopolamine rat): improved cognitive function in a dose-dependent manner; Hematocrit level ([5]; 30 mg/kg oral once a day for 8 weeks): 48.7 ± 1.5%
3 | CCc1ccc(CCOc2ccc(CC3SC(=O)NC3=O)cc2)nc1 (stereo not drawn) [pioglitazone] |  |  |  |  |  |  |  |  |  |  | Effect on hematocrit level in mice (summary of Example 5) [6]: decreased
